For orientation: inhibition means the share of the control response that was lost under treatment. Higher therefore signals a response far below the control.

Each structure is given as a SMILES string.

This assay deals with Cholinesterase (Homo sapiens) (UniProt P06276). The assay is described as follows: Inhibition of butylcholine esterase at 100 ug/mL.
Cholinesterase (Homo sapiens), sequence (P06276 whole entry): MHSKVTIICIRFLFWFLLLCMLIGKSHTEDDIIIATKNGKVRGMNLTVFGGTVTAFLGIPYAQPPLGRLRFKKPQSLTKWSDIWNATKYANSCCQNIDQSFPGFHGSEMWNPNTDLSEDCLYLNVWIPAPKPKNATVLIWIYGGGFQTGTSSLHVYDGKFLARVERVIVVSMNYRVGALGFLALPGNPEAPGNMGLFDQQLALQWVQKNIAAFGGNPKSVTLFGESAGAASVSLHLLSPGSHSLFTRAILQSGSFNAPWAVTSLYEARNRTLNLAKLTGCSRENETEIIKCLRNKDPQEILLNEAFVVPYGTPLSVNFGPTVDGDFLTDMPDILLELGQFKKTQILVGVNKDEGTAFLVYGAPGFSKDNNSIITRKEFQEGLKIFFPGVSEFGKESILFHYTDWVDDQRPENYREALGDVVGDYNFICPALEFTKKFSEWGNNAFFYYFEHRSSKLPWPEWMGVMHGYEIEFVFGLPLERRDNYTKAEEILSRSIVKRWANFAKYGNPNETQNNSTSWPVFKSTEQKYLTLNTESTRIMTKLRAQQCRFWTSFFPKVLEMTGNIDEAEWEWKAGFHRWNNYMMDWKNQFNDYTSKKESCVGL

As to `CC(C)=C[C@@H](O)C(=O)/C(C)=C/CC/C(C)=C/CC[C@]1(C)CCc2cc(O)cc(C)c2O1`, the inhibition turned out to be 82.7%.

In the case of `CC(C)=CC(C(=O)O)/C(C)=C/CC/C(C)=C/CC[C@]1(C)CCc2cc(O)cc(C)c2O1` (some centres not stated), the inhibition amounted to 80%.
